Data reported in US20150196025A1, “BIOACTIVE HEME-HALOPEROXIDASE COMPOSITIONS AND METHODS OF THEIR USE” (Exoxemis, Inc., priority 2014, published 2015).

How the values were obtained:
Type in all cases: cell-based, Staphylococcus aureus
S. aureus [1] = assay: Microbicidal plate assay, pEPO with amine additives, aged 0 or 5 minutes with H2O2 (Example 7); conditions: FIG. 7, 10 ug/mL pEPO, additive 3 mM, 2 mM NaBr; for microbicidal activity, Reaction 2 (aged 5 minutes with H2O2): 0.89 mM H2O2; for microbicidal activity, Reaction 1 (aged 0 min): 0.89 mM H2O2, one minute, 10^8 cfu/mL
S. aureus [2] = assay: Microbicidal plate assay, formulations aged 1 or 30 minutes before adding bacteria, with or without ethanolamine (Examples 5 and 6); conditions: FIG. 6 compared to FIG. 5
Description: S. aureus (10^9 cfu/mL, final concentration) was added and the reaction was incubated at room temperature for one minute. The reaction was stopped by plating. The plates were incubated overnight at 36° C.
The reactions described in Example 4 were repeated with Formulations F for plates 2-5 with the added condition that the formulations were incubated (aged) 1 or 30 minutes prior to adding the S. aureus bacteria. The reaction was incubated at room temperature for one minute after the addition of bacteria. An additional sample was added (100 μg/mL pEPO; 8.9 mM H2O2; 20 mM ethanolamine; and 20 mmM NaBr).
The reactions were carried out as described in Example 5.

S. aureus [3] = assay: Microbicidal plate assay, pEPO formulations aged two minutes to ninety-six hours with H2O2 (Examples 8 and 9); conditions: 50 ug/mL pEPO, 20 mM additive; for microbicidal activity, Reaction 2 (aged twenty-four hours): FIG. 9B; for microbicidal activity, Reaction 2 (aged twenty-four hours) / retention of microbicidal activity on ageing / microbicidal activity, Reaction 1 (aged two minutes): 10 mM NaBr, 8.9 mM H2O2; for retention of microbicidal activity on ageing: FIGS. 8A-8C, aged two minutes, twenty-four or ninety-six hours; for kill of the microbes added to aged formulations: aged for up to ninety-six hours before the addition of bacteria; for microbicidal activity, Reaction 1 (aged two minutes): FIG. 9A
S. aureus [4] = assay: Microbicidal plate assay, hydrogen peroxide/pEPO/ethanolamine versus neat hydrogen peroxide (Example 4)

## OCCNCCO [diethanolamine]
S. aureus [1]
  microbicidal activity, Reaction 2 (aged 5 minutes with H2O2): maintained microbicidal activity
  microbicidal activity, Reaction 1 (aged 0 min): some microbicidal activity

## NCCO [ethanolamine]
S. aureus [2]
  effect of ethanolamine on microbicidal activity: significantly enhances the microbicidal activity of pEPO/H2O2 compositions
S. aureus [1]
  microbicidal activity, Reaction 2 (aged 5 minutes with H2O2): maintained microbicidal activity
  microbicidal activity, Reaction 1 (aged 0 min): some microbicidal activity
S. aureus [3]
  microbicidal activity, Reaction 2 (aged twenty-four hours): retain microbicidal activity for twenty-four hours
  retention of microbicidal activity on ageing: retain microbicidal activity up to at least ninety-six hours
  kill of the microbes added to aged formulations: complete kill

## NCC(N)=O [glycinamide, Glycinamide, reference compound]
S. aureus [3]
  microbicidal activity, Reaction 1 (aged two minutes): show initial microbicidal activity
  microbicidal activity, Reaction 2 (aged twenty-four hours): lose microbicidal activity after twenty-four hours

## COC(=O)CN [glycine methyl ester, Glycine methyl ester, reference compound]
S. aureus [3]
  microbicidal activity, Reaction 1 (aged two minutes): show initial microbicidal activity
  microbicidal activity, Reaction 2 (aged twenty-four hours): lose microbicidal activity after twenty-four hours

## OO [hydrogen peroxide]
S. aureus [4]
  concentration of H2O2 effective to result in a complete kill (as low as): 0.5 mM
S. aureus [4]; 89 mM (0.3%), no pEPO, one minute
  killing the bacteria by neat hydrogen peroxide: ineffective in killing the bacteria
S. aureus [4]; hydrogen peroxide 0.5 mM with the addition of pEPO, Plate 2
  kill of the bacteria: 100%

## NCCCO [propanolamine]
S. aureus [3]
  retention of microbicidal activity on ageing: retain microbicidal activity up to at least ninety-six hours
  kill of the microbes added to aged formulations: complete kill

## N[C@@H](CO)C(=O)O [serine, L-serine, reference compound]
S. aureus [1]
  microbicidal activity, Reaction 2 (aged 5 minutes with H2O2): only formulations comprising pEPO and ethanolamine or diethanolamine maintained microbicidal activity
  microbicidal activity, Reaction 1 (aged 0 min): some microbicidal activity
